In article PMC6522981, “Structure-based design generated novel hydroxamic acid based preferential HDAC6 lead inhibitor with on-target cytotoxic activity against primary choroid plexus carcinoma” (Journal of Enzyme Inhibition and Medicinal Chemistry, 2019):
Where two headings read alike, the source gives them in different places.

Columns and labels:
human HDAC6 [1] = target: T1, human HDAC6 (Homo sapiens, UniProt Q9UBN7); assay: IC50 of the test inhibitor against HDAC6 (10-dose enzymatic assay); type: biochemical; parameters: purchased BPS Bioscience 50006
T1 sequence (Q9UBN7 1-1215): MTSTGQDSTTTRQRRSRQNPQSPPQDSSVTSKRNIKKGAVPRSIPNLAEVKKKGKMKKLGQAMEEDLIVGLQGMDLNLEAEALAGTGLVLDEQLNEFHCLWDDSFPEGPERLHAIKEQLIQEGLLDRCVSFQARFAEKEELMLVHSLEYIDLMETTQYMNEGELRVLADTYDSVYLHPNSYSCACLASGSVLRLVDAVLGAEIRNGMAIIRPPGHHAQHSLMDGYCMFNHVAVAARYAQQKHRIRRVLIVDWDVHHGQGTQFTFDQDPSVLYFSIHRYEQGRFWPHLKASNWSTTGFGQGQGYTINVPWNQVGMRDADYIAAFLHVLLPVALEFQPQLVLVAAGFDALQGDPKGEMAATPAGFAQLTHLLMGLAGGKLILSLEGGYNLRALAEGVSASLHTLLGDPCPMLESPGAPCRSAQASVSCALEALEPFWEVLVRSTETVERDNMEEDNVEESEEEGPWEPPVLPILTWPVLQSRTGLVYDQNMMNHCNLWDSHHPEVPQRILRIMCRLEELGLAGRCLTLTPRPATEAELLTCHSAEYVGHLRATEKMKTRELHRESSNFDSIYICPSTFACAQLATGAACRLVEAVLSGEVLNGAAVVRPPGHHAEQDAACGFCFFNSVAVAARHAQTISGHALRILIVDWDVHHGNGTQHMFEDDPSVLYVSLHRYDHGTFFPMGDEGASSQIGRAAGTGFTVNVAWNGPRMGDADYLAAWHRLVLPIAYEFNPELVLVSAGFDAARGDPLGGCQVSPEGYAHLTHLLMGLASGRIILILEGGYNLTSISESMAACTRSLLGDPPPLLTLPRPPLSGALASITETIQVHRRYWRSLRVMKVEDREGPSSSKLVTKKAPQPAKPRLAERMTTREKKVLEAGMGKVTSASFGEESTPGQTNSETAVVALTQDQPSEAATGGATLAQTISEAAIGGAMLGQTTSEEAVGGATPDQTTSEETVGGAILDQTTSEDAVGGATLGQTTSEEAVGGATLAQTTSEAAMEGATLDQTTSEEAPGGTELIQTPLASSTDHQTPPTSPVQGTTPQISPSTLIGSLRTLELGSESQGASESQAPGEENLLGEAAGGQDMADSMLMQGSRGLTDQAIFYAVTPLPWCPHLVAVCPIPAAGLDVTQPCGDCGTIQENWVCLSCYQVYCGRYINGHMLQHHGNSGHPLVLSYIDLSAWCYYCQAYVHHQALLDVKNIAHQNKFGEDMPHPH

human HDAC11 = target: T2, human HDAC11 (Homo sapiens, UniProt Q96DB2); assay: HDAC11 inhibitor enzymatic assay, % inhibition at fixed concentration
T2 sequence (Q96DB2 1-347): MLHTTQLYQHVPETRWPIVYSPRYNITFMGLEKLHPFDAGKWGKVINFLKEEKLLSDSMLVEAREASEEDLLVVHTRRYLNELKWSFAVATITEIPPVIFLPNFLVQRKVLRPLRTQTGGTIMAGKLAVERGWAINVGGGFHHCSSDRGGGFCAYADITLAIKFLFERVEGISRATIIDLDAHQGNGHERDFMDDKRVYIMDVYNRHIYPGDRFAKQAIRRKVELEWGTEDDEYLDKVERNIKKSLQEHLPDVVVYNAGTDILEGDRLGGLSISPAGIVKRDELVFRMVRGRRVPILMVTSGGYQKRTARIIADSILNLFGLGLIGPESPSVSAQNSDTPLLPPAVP

human HDAC9 = human HDAC9 (Homo sapiens, UniProt Q9UKV0); assay: HDAC9 inhibitor enzymatic assay, % inhibition at fixed concentration
human HDAC9, sequence (Q9UKV0 1-1066 isoform Q9UKV0-5): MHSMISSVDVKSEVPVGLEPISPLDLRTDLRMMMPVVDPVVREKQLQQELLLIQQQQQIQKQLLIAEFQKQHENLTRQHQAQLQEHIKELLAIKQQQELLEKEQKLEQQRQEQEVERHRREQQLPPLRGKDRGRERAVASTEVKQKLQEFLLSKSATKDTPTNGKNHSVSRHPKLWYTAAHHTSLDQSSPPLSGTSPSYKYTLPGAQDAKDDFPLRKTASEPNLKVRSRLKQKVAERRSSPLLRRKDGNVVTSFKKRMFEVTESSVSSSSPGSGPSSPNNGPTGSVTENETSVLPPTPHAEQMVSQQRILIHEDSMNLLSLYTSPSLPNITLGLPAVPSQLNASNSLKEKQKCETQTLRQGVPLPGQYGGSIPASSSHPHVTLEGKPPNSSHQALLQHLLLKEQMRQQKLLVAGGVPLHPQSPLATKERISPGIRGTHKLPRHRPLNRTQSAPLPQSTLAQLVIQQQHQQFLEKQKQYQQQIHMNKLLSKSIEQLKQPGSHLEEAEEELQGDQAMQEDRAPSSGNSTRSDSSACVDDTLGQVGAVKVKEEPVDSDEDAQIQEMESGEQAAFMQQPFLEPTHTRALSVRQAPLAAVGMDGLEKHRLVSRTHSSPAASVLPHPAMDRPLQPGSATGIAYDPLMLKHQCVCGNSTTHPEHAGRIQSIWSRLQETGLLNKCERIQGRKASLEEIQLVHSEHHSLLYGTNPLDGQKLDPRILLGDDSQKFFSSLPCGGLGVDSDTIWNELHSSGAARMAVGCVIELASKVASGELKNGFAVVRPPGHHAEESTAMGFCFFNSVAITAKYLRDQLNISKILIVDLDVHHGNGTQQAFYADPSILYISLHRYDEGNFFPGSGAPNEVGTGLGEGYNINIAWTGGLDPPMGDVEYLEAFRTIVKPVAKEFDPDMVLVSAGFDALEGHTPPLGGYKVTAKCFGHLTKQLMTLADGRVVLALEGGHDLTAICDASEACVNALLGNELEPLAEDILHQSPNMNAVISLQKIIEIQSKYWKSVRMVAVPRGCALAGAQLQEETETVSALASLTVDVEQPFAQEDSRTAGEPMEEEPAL

human HDAC4 = human HDAC4 (Homo sapiens, UniProt P56524); assay: HDAC4 inhibitor enzymatic assay, % inhibition at fixed concentration
human HDAC4, sequence (P56524 627-1084 limits assumed): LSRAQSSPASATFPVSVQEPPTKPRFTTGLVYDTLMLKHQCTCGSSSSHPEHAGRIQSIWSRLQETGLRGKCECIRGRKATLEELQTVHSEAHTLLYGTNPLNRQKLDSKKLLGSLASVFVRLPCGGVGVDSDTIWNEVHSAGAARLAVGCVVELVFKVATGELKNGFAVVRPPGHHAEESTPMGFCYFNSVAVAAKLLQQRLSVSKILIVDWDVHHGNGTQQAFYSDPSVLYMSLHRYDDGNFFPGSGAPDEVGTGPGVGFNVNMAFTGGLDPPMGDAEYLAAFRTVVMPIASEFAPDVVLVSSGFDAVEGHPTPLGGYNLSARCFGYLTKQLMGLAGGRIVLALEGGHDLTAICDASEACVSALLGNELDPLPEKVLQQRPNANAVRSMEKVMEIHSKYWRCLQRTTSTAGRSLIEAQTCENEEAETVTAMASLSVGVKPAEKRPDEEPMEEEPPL

human HDAC8 = target: T3, human HDAC8 (Homo sapiens, UniProt Q9BY41); assay: HDAC8 inhibitor enzymatic assay, % inhibition at fixed concentration; type: biochemical
T3 construct: purchased BPS Bioscience 50008
T3 sequence (Q9BY41 1-377): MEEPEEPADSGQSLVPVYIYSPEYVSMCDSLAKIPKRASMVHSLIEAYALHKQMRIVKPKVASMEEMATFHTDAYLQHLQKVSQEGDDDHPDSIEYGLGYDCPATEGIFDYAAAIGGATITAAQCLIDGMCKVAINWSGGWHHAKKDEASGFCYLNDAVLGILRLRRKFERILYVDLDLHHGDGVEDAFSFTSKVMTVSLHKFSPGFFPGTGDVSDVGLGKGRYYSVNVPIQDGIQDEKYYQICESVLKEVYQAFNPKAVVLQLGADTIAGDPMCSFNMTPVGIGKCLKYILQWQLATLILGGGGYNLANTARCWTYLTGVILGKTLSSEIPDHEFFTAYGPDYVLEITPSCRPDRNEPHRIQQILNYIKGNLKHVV

human HDAC6 [2] = target: T1, human HDAC6; assay: HDAC6 inhibitor enzymatic assay, % inhibition at fixed concentration; settings: read-out: % Inhibition HDAC6
human HDAC5 = human HDAC5 (Homo sapiens, UniProt Q9UQL6); assay: HDAC5 inhibitor enzymatic assay, % inhibition at fixed concentration
human HDAC5, sequence (Q9UQL6 656-1122 limits assumed): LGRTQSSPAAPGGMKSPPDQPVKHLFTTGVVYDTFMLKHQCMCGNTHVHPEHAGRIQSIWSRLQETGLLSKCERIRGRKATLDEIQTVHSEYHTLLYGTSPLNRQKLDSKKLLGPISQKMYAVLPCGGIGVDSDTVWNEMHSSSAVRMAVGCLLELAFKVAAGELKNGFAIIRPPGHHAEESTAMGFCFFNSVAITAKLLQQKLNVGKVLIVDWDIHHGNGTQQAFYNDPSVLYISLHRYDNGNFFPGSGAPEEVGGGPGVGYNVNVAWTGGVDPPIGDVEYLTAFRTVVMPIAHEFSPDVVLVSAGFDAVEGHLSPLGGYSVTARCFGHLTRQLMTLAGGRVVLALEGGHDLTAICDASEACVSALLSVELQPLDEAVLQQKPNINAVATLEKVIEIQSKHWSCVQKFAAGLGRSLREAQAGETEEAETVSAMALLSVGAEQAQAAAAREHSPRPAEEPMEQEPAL

[3] = read-out: HDAC6 % Activity Repeat1
[4] = read-out: HDAC6 % Activity Repeat2

Compound `CC(=C/C(C)C(=O)c1ccc(N(C)C)cc1)/C=C/C(=O)NO` (centres unmarked) [TSA, Trichostatin A, reference compound] has an activity at 30 pM (human HDAC6 [1]; [3]) of 100%, an activity at 0.0001 µM (human HDAC6 [1]; [3]) of 98% and an activity at 0.0003 µM (human HDAC6 [1]; [3]) of 96%. The activity at 0.001 µM (human HDAC6 [1]; [3]) was 79%, the activity at 0.003 µM (human HDAC6 [1]; [3]) was 63% and the activity at 0.01 µM (human HDAC6 [1]; [3]) was 36%. The activity at 0.03 µM (human HDAC6 [1]; [3]) was 15%, the activity at 0.1 µM (human HDAC6 [1]; [3]) was 5% and the activity at 0.3 µM (human HDAC6 [1]; [3]) was 2%. The activity at 1 µM (human HDAC6 [1]; [3]) was 0%, the activity at 30 pM (human HDAC6 [1]; [4]) was 98% and the activity at 0.0001 µM (human HDAC6 [1]; [4]) was 96%. For the same compound, the activity at 0.0003 µM (human HDAC6 [1]; [4]) was 89%, the activity at 0.001 µM (human HDAC6 [1]; [4]) was 84% and the activity at 0.003 µM (human HDAC6 [1]; [4]) was 58%. For the same compound, the activity at 0.01 µM (human HDAC6 [1]; [4]) was 34%, the activity at 0.03 µM (human HDAC6 [1]; [4]) was 13% and the activity at 0.1 µM (human HDAC6 [1]; [4]) was 5%. For the same compound, the activity at 0.3 µM (human HDAC6 [1]; [4]) was 2%, the activity at 1 µM (human HDAC6 [1]; [4]) was 0% and the inhibition at 1 µM (human HDAC11; read-out: % Inhibition HDAC11) was 15%. It also gave an inhibition at 100 µM (human HDAC11; read-out: % Inhibition HDAC11) of 91%, an inhibition at 10 µM (human HDAC11; read-out: %inhibition of HDACs at 10µM of test compound HDAC11) of 49% and an inhibition at 1 µM (human HDAC9; read-out: % Inhibition HDAC9) of 15%. It also gave an inhibition at 100 µM (human HDAC9; read-out: % Inhibition HDAC9) of 95%, an inhibition at 10 µM (human HDAC9; read-out: %inhibition of HDACs at 10µM of test compound HDAC9) of 60% and an inhibition at 1 µM (human HDAC4; read-out: % Inhibition HDAC4) of 36%. The inhibition at 100 µM (human HDAC4; read-out: % Inhibition HDAC4) was 92%, the inhibition at 10 µM (human HDAC4; read-out: %inhibition of HDACs at 10µM of test compound HDAC4) was 64% and the inhibition at 1 µM (human HDAC8; read-out: % Inhibition HDAC8) was 53%. It also gave an inhibition at 10 µM (human HDAC8; read-out: %inhibition of HDACs at 10µM of test compound HDAC8) of 89%, an inhibition at 1 µM (human HDAC6 [2]) of 100% and an inhibition at 1 µM (human HDAC5; read-out: % Inhibition HDAC5) of 33%. It also gave an inhibition at 100 µM (human HDAC5; read-out: % Inhibition HDAC5) of 93% and an inhibition at 10 µM (human HDAC5; read-out: %inhibition of HDACs at 10µM of test compound HDAC5) of 64%.
